Patent US20250065090A1, “DEVICE AND METHOD FOR DELIVERY OF A HEARING DRUG FORMULATION” (Corti Therapeutics Pte. Ltd., priority 2023, published 2025)
Like-named read-outs stand apart in the source and are kept apart here.

Key:
[1] = tested on: cisplatin hearing loss model
Description: A solution of freshly prepared sodium thiosulfate solution was loaded in a Hamilton syringe with 26 G needle.

[2] = after STS local administration
Protocol: The time-concentration data was used for calculations. The area under the concentration-time curve (AUC) was determined by the trapezoidal rule. Terminal elimination half-lives of sodium thiosulfate (STS) in perilymph and plasma were determined by use of WIN NONLIN version 2.0 SCI.
30 guinea pigs (250-350 g) without sign of otitis media stayed for ˜3 days acclimation, and ready for PK study. Two anesthesia methods (Zoletil+Xylazine with head up 30 min) and Isoflurane (animal wake up immediately post-injection)] were used. 15 animals for each group.
The subjection guinea pig was anesthetized with zolazepam hydrochloride (Zoletil) and Xylazine or isoflurane inhalation. A solution of freshly prepared sodium thiosulfate solution was loaded in a Hamilton syringe with 26 G needle. The needle was carefully inserted into the left middle ear cavity via the tympanic membrane aiming to cochlear round window. ˜50 μL of dosing solution was injected. The animal was positioned head up for ˜30 min prior to waking up in Zoletil and Xylazine or wake up immediately in isoflurane inhalation.
In C-subgroup of each group, animal blood was systemically drawn (˜100 uL) via bilateral saphenous vein at the multiple time points. Put the collection blood in heparinized tube and stay ˜20 min. ˜50 μL of plasma was collected in microtube and put in −80° C. for future analysis.
STS concentrations were quantitatively analyzed by HPLC using an LC-20AT with a SPD-M20A UV-Vis detector (Shimadzu, Kyoto, Japan) and a LiChrospher RP-select B LiChroCART 250-4 […] column (EMD Millipore Corp, Darmstadt, Germany). All samples were prepared using a method similar to that described by Togawa et al. (1992).

[3] = Calculated osmolarity of STS formulation; type: physicochemical; settings: aqueous solution of sodium thiosulfate 0.1M to 0.5M
[4] = tested on: cisplatin induced hearing loss; settings: intratympanic administration, multiple clinical trials; cited from earlier work
[5] = tested on: cisplatin induced hearing loss; settings: intratympanic injection, animal studies; cited from earlier work
[6] = tested on: cisplatin induced hearing loss; settings: systemic administration, humans; cited from earlier work
[7] = tested on: patients receiving cisplatin; settings: cited from earlier work

Compound	hearing protection ([1]; 0.2M concentration, simple aqueous formulation without gelling agent, guinea pig cisplatin hearing loss model)	protection of the sodium thiosulfate treated ears (ABR) ([1]; all groups (2.5%, 5% and 10% sodium thiosulfate), TT or IT injection ~30 min before cisplatin 10 mg/kg iv, ABR 7 days after infusion, treated vs untreated contralateral ear)	Tmax of systemic thiosulfate [2]	systemic thiosulfate concentration [2]	time until systemic thiosulfate concentration recovered to normal [2]	calculated osmolarity [3] [mOsm/L]	hearing protection [4]	effect on cisplatin induced hearing loss [5]	effect on cisplatin induced hearing loss [6]	cure rate ([7]; cisplatin based chemotherapy, testicular cancer) [%]	patients developing hearing loss ([7]; human, in vivo)
O=S([O-])([O-])=S.[Na+].[Na+] [sodium thiosulfate]	full hearing protection	nearly completed protection	approximately 30 min	increased	around 1 hour	< 1500	no meaningful hearing protection	prevented the cisplatin induced hearing loss	mitigate cisplatin induced hearing loss		
N.N.[Cl][Pt][Cl] [cisplatin, Cisplatin]										> 90	60%-80%
